Source: patent US20170150719A1, “FUNGICIDAL PYRAZOLES AND THEIR MIXTURES” (E I DU PONT DE NEMOURS AND COMPANY, priority 2010, published 2017)

Key:
Septoria tritici = assay: Test F: wheat leaf blotch, preventive spray on wheat seedlings, visual disease rating; type: in vivo; conditions: 100 = 100% disease control; for Test F rating (disease control) / pest or weed control at 200 µg/mL: 0 = no disease control relative to the controls; for Test F rating (% disease control): preventive spray, rating without asterisk; for pest or weed control at 200 µg/mL: Zymoseptoria tritici
Excerpt: (§1) A hyphen (-) indicates no test results.

[1] = test system: Puccinia recondita f. sp. tritici; assay: Test H: wheat leaf rust, preventive spray on wheat seedlings, visual disease rating; conditions: 100 = 100% disease control; for Test H rating (disease control) / Test H rating (% disease control): wheat leaf rust; for Test H rating (disease control): sprayed the day before inoculation; for Test H rating (disease control) / pest or weed control at 200 µg/mL: 0 = no disease control; for Test H rating (% disease control): preventive spray, rating without asterisk; for pest or weed control at 200 µg/mL: read-out: Test H rating (disease control), wheat leaf rust, sprayed the day before inoculation
Septoria nodorum = assay: Test E: Septoria glume blotch, preventive spray on wheat seedlings, visual disease rating; conditions: 100 = 100% disease control; for Test E rating (disease control): Septoria glume blotch; for Test E rating (disease control) / pest or weed control at 200 µg/mL: 0 = no disease control relative to the controls; for Test E rating (% disease control): Septoria glume blotch on wheat, preventive spray, rating without asterisk; for pest or weed control at 200 µg/mL: Parastagonospora nodorum, in Triticum aestivum, read-out: Test E rating (disease control), Septoria glume blotch
[2] = test system: Blumeria graminis f. sp. tritici; assay: Test I: wheat powdery mildew, preventive spray on wheat seedlings, visual disease rating; conditions: 100 = 100% disease control; for Test I rating (disease control) / Test I rating (% disease control): wheat powdery mildew; for Test I rating (disease control) / pest or weed control at 200 µg/mL: 0 = no disease control relative to the controls; for Test I rating (% disease control): preventive spray, rating without asterisk; for pest or weed control at 200 µg/mL: Blumeria graminis, in Triticum aestivum, read-out: Test I rating (disease control), wheat powdery mildew
Alternaria solani = assay: Test B: tomato early blight, preventive spray on tomato seedlings, visual disease rating; conditions: for Test B rating (disease control) / Test B rating (% disease control): tomato early blight, 100 = 100% disease control; for Test B rating (disease control): 0 = no disease control relative to the controls; for Test B rating (% disease control): preventive spray, rating without asterisk; for pest or weed control at 200 µg/mL: Alternaria solani, in Solanum lycopersicum, read-out: Test B rating (disease control)
[3] = test system: Puccinia recondita f. sp. tritici; assay: Test G: wheat leaf rust, spray after inoculation (curative) on wheat seedlings, visual disease rating; type: in vivo; conditions: 100 = 100% disease control; for Test G rating (disease control) / pest or weed control at 200 µg/mL: sprayed after inoculation, 0 = no disease control; for Test G rating (% disease control): spray after inoculation, rating without asterisk
Excerpt: as §1

Botrytis cinerea = assay: Test A: tomato Botrytis, preventive spray on tomato seedlings, visual disease rating; conditions: 100 = 100% disease control; for Test A rating (disease control) / Test A rating (% disease control): tomato Botrytis; for Test A rating (disease control) / pest or weed control at 200 µg/mL: 0 = no disease control relative to the controls; for Test A rating (% disease control): preventive spray, 0 = no control relative to controls, rating without asterisk; for pest or weed control at 200 µg/mL: Botrytis cinerea, in Solanum lycopersicum, read-out: Test A rating (disease control), tomato Botrytis

| SMILES | Test F rating (disease control) (Septoria tritici) | Test H rating (disease control) [1] | Test E rating (disease control) (Septoria nodorum) | Test I rating (disease control) [2] | Test B rating (disease control) (Alternaria solani) | Test G rating (disease control) [3] | Test A rating (disease control) (Botrytis cinerea) | further results |
| --- | --- | --- | --- | --- | --- | --- | --- | --- |
| Cc1nn(C)c(Nc2ccc(F)cc2F)c1-c1c(F)cccc1F [compound 49] | 98% | 83% | 80% | 100% | 100% | 0% | 100% | – |
| Cc1nn(C)c(Nc2ccc(Cl)cc2Cl)c1-c1c(Cl)cccc1Cl [compound 105] | 100% | 96% | 0% | 99% | 0% | 0% | 99% | – |
| Cc1nn(C)c(Oc2c(F)cc(C#N)cc2F)c1-c1ccccc1Br [compound 76] | 99% | 99% | 99% | 99% | 97% | 0% | 100% | – |
| COc1ccc(-c2c(C)nn(C)c2Nc2c(Cl)cc(F)cc2Cl)c(Cl)c1 [compound 205] | – | – | – | – | – | – | – | Test F rating (% disease control) (Septoria tritici): 100%; Test H rating (% disease control) [1]: 99%; Test E rating (% disease control) (Septoria nodorum): 0%; Test I rating (% disease control) [2]: 21%; Test B rating (% disease control) (Alternaria solani): 31%; Test G rating (% disease control) [3]: 0%; Test A rating (% disease control) (Botrytis cinerea): 59% |
| COc1cc(F)c(Nc2c(-c3ccc(F)cc3Cl)c(C)nn2C)c(F)c1 [Compound 3, 4-(2-chloro-4-fluorophenyl)-N-(2,6-difluoro-4-methoxyphenyl)-1,3-dimethyl-1H-pyrazol-5-amine] | – | – | – | – | – | – | – | pest or weed control at 200 µg/mL (Septoria tritici): 97%; pest or weed control at 200 µg/mL [1]: 100%; pest or weed control at 200 µg/mL (Septoria nodorum): 93%; pest or weed control at 200 µg/mL [2]: 100%; pest or weed control at 200 µg/mL (Alternaria solani): 100%; pest or weed control at 200 µg/mL [3]: 96%; pest or weed control at 200 µg/mL (Botrytis cinerea): 100% |
| COc1ccc(Nc2c(-c3ccc(F)cc3Cl)c(C)nn2C)c(Cl)c1 [compound 101] | 100% | 100% | 0% | 100% | 93% | 99% | 100% | – |
| Cc1nn(C)c(Nc2c(F)cc(F)cc2Cl)c1-c1c(F)cccc1F [Compound 86, N-(2-chloro-4,6-difluorophenyl)-4-(2,6-difluorophenyl)-1,3-dimethyl-1H-pyrazol-5-amine] | – | – | – | – | – | – | – | pest or weed control at 200 µg/mL (Septoria tritici): 100%; pest or weed control at 200 µg/mL [1]: 100%; pest or weed control at 200 µg/mL (Septoria nodorum): 90%; pest or weed control at 200 µg/mL [2]: 100%; pest or weed control at 200 µg/mL (Alternaria solani): 99%; pest or weed control at 200 µg/mL [3]: 0%; pest or weed control at 200 µg/mL (Botrytis cinerea): 100% |
| Cc1nn(C)c(Nc2c(F)cc(I)cc2F)c1-c1ccc(F)cc1Cl [compound 217] | – | – | – | – | – | – | – | Test F rating (% disease control) (Septoria tritici): 100%; Test H rating (% disease control) [1]: 99%; Test E rating (% disease control) (Septoria nodorum): 86%; Test I rating (% disease control) [2]: 99%; Test B rating (% disease control) (Alternaria solani): 58%; Test G rating (% disease control) [3]: 41%; Test A rating (% disease control) (Botrytis cinerea): 100% |
| Cc1nn(C)c(Nc2c(F)cc(F)cc2Cl)c1-c1ccc(F)cc1Br [Compound 84, 4-(2-bromo-4-fluorophenyl)-N-(2-chloro-4,6-difluorophenyl)-1,3-dimethyl-1H-pyrazol-5-amine] | – | – | – | – | – | – | – | pest or weed control at 200 µg/mL (Septoria tritici): 100%; pest or weed control at 200 µg/mL [1]: 100%; pest or weed control at 200 µg/mL (Septoria nodorum): 96%; pest or weed control at 200 µg/mL [2]: 100%; pest or weed control at 200 µg/mL (Alternaria solani): 99%; pest or weed control at 200 µg/mL [3]: 92%; pest or weed control at 200 µg/mL (Botrytis cinerea): 100% |
| Cc1nn(C)c(Nc2ccc(Br)cc2F)c1-c1ccc(F)cc1F [compound 154] | 100% | 98% | 0% | 99% | 9% | 68% | 100% | – |
| Cc1nn(C)c(Oc2ccc(C#N)cc2Cl)c1-c1c(F)cccc1F [Compound 127, 3-chloro-4-[[4-(2,6-difluorophenyl)-1,3-dimethyl-1H-pyrazol-5-yl]oxy]benzonitrile] | – | – | – | – | – | – | – | pest or weed control at 200 µg/mL (Septoria tritici): 100%; pest or weed control at 200 µg/mL [1]: 97%; pest or weed control at 200 µg/mL (Septoria nodorum): 0%; pest or weed control at 200 µg/mL [2]: 97%; pest or weed control at 200 µg/mL (Alternaria solani): 0%; pest or weed control at 200 µg/mL [3]: 0%; pest or weed control at 200 µg/mL (Botrytis cinerea): 99% |
| Cc1nn(C)c(Nc2c(F)cc(C#N)cc2F)c1-c1c(F)cc(F)cc1F [compound 26] | 100% | 99% | 99% | 100% | 100% | 41% | 100% | – |
| Cc1nn(C)c(Nc2ccc(Br)cc2F)c1-c1ccc(F)cc1Br [compound 169] | 100% | 96% | 60% | 99% | 0% | 23% | 100% | – |
| Cc1nn(C)c(Nc2ccc(C#N)cc2F)c1-c1ccc(F)cc1F [compound 68] | 100% | 80% | 0% | 100% | 51% | 0% | 99% | – |
| COc1ccc(-c2c(C)nn(C)c2Oc2c(F)cc(C#N)cc2F)c(F)c1 [compound 14] | 100% | 100% | 99% | 99% | 100% | 37% | 99% | – |
